Results: patent publication US20070197470A1, “Use of n-acetyl-d-aminogylcosamine in preparation of drugs for modulating microorganisms on mucous membrane” (priority 2003, published 2007)
Entries after “also recorded” stand apart in the source; their conditions may differ.

Assays:
[1] = test system: flora of mucocutaneous microecology; assay: Clinical trial, detection of flora of mucocutaneous microecology (detection rates of various bacteria); format: in vivo, human
Excerpt: 56 patients with symptoms of microecological imbalance, including 20 patients with oral complaints, such as halitosis, oral infections caused by clinically unknown pathogenic bacteria, 20 patients with subaxilary complaints, such as slimy sensation or bromidrosis, and 16 patients with low […] of gynecological genitourinary tract caused by unknown source of infectious pathogen, were separately treated by mouthwash or topical sprinkle of 1% N-acetyl-D-glucosamine aqueous solution twice daily for 7 days. […] Detection results of flora of mucocutaneous microecology regulated by N-acetyl-D-glucosamine (detection rates of various bacteria)

[2] = test system: patients with symptoms of microecological imbalance; assay: Clinical trial, effects for regulating mucocutaneous microecology; format: in vivo, human
Excerpt: 56 patients with symptoms of microecological imbalance, including 20 patients with oral complaints, such as halitosis, oral infections caused by clinically unknown pathogenic bacteria, 20 patients with subaxilary complaints, such as slimy sensation or bromidrosis, and 16 patients with low […] of gynecological genitourinary tract caused by unknown source of infectious pathogen, were separately treated by mouthwash or topical sprinkle of 1% N-acetyl-D-glucosamine aqueous solution twice daily for 7 days. […] Observation of effects of N-acetyl-D-glucosamine for regulating mucocutaneous microecology

Proteus Mirabilis = assay: Promoting wave test (bio-wave model); format: cell-based
Excerpt: 1.1 Samples: Pure Compound of Formula (I)
• Strain: Proteus Mirabilis (which should comply with the following biological reaction characteristics: dynamics (+), urease (+), lactose (−), glucose (+), H2S (−), phenylalanine deaminase (+). • Culture medium: modified LB culture medium (the component of the composition are: 1% trytones, 0.5% yeast extract, 1% sodium chloride, 0.1% glucose, 0.002% TTC, and pH=7.2˜7.4). 1.3 Experimental Method:
The experiment adopted a bio-wave model for studying the promoting wave function of the compound of formula (I).

Pseudomonas aeruginosa = assay: Tests of bacterial colonization resistance; format: in vivo; details: intestinal mucosa of test animals, different concentrations
Method: Pseudomonas aeruginosa is used in the tests of bacterial colonization resistance of the compound of formula (I). The intestinal mucosa of test animals that were pre-administrated with Pseudomonas aeruginosus and were treated by the compound of formula (I) with different concentrations was detected by in situ colonization, qualitative and quantitative methods.

[3] = in vivo
Excerpt: • 1. Acute toxicity test: including tests of administrating medicine orally, intravenous injection and maximum limit amount for administration; • 2. Ames test; • 3. Micronucleus test of bone marrow cell of small mouse; • 4. Abnormal sexual test for the sperm of mouse; • 5. Abnormal aberrance test for the chromosin of mouse's testis; • 6. Chronic lethal test; • 7. Subchronic toxicity (feed for 90 days) test; • 8. Traditional deformity-inducing test;

[4] = Microecological imbalance of gynecological genitourinary tract, 16 cases
[5] = Subaxillary slimy sensation, 10 cases

CC(=O)N[C@@H]1[C@@H](O)[C@H](O)[C@@H](CO)O[C@H]1O [N-acetyl-D-glucosamine]
detection rate of helicoids ([1]; Buccal cavity (salivary bacteria), after regulation, before regulation 12): helicoids (0)
detection rate of corynebacterium diphtheroides ([1]; Buccal cavity (salivary bacteria), after regulation, before regulation 18): diphtheroides (8),
detection rate of Streptococcus mutans ([1]; Buccal cavity (salivary bacteria), after regulation, before regulation 23): (7), streptococcus
detection rate of streptococcus salivarius ([1]; Buccal cavity (salivary bacteria), after regulation, before regulation 40): salivarius (90),
detection rate of Neisser's coccus ([1]; Buccal cavity (salivary bacteria), after regulation, before regulation 50): (95), corynebacterium
detection rate of bacteroides ([1]; Buccal cavity (salivary bacteria), after regulation, before regulation 60): bacteroides (30),
detection rate of aerobic coryneform bacteria ([1]; Skin of axillary fossa, after regulation, before regulation 18): bacteria (12), pityro-
detection rate of Staphylococci ([1]; Skin of axillary fossa, after regulation, before regulation 20): Staphylococci (36),
detection rate of pityrosporum furfur ([1]; Skin of axillary fossa, after regulation, before regulation 24): sporum furfur (15),
detection rate of bacillus polymyxa odour ([1]; Skin of axillary fossa, after regulation, before regulation 40): odour (9)
detection rate of bacillus acidi lactici ([1]; Woman's genitourinary tract, after regulation, before regulation 18): acidi lactici (60),
detection rate of bacillus coli ([1]; Woman's genitourinary tract, after regulation, before regulation 29): bacillus coli (10)
detection rate of Staphylococcus epidermidis ([1]; Woman's genitourinary tract, after regulation, before regulation 38): midis (35), bacillus
change of flora after use ([1]; buccal cavity, skin of axillary fossa and woman's genitourinary tract): autochthonous flora increased and allochthonous flora decreased
total effective rate ([2]; 56 patients, 1% aqueous solution mouthwash or topical sprinkle twice daily for 7 days): 87.8%
Cured ([2]; Bromidrosis, 10 cases): 5
Effective ([2]; Bromidrosis, 10 cases): 3
Effective rate (%) ([2]; Bromidrosis, 10 cases): 80%
Ineffective ([2]; Bromidrosis, 10 cases): 2
Cured [2, 4]: 7
Effective [2, 4]: 6
Effective rate (%) [2, 4]: 81.3%
Ineffective [2, 4]: 3
Cured ([2]; Oral compliant, 20 cases): 8
Effective ([2]; Oral compliant, 20 cases): 10
Effective rate (%) ([2]; Oral compliant, 20 cases): 90%
Ineffective ([2]; Oral compliant, 20 cases): 2
Cured [2, 5]: 7
Effective [2, 5]: 3
Effective rate (%) [2, 5]: 100%
Ineffective [2, 5]: 0
promoting wave function (Proteus Mirabilis): many fine waves on each ring emerged; also recorded: has promoting function to bio-waves
colonization resistance against Pseudomonas aeruginosa (Pseudomonas aeruginosa): increased with the increase of its concentration
acute test dosage relative to the injection dosage for human being [3]: 300 times
dosage at which the acute toxicosis reaction had not appeared [3]: more than 2 g/kg
maximum dosage with no intoxication reaction ([3]; 4 weeks): 1 g/kg
